Assay results reported in patent US5141934A, “Tetracyclic amines having pharmaceutical activity” (Warner-Lambert Company, priority 1990, dated 1992).

Biological target: phencyclidine (PCP) receptors (noncompetitive NMDA antagonist binding site)
Experiment: Tritiated 1[1-(2 thienyl)cyclohexyl]piperidine (TCP) binding, designated RBS1
Conditions: Table 1, read-out: RBSI IC50
Description: The ability of the compounds of the instant invention to interact with phencyclidine (PCP) receptors which represents a noncompetitive NMDA antagonist binding site, is shown in Table 1. Tritiated 1[1-(2 thienyl)cyclohexyl]piperidine (TCP) binding, designated RBS1, was carried out essentially as described in J. Pharmacol. Exp. Ther., 238, 739 (1986).

In order of rising IC50:
1. c1csc(C2(N3CCCCC3)CCCCC2)c1 [TCP, 1[1-(2 thienyl)cyclohexyl]piperidine]  0.009 µM
2. c1ccc(C2(N3CCCCC3)CCCCC2)cc1 [PCP, phencyclidine]  0.04 µM
3. c1ccc2c(c1)C[C@H]1CN(CC3CC3)[C@@]23CCCC[C@@H]13 (relative stereo) [Example 20, (+/-)-(4aα,10α,10aα)-12-(Cyclopropylmethyl)-1,3,4,9,10,10a-hexahydro-2H-4a,10-(iminomethano)-phenanthrene]  0.051 µM
4. CCCN1C[C@@H]2Cc3ccccc3[C@]13CCCC[C@@H]23 (relative stereo) [Example 19, (+/-)-(4aα,10α,10aα)-1,3,4,9,10,10a-Hexahydro-12-propyl-2H-4a,10-(iminomethano)phenanthrene]  0.054 µM
5. c1ccc2c(c1)C[C@H]1CN[C@@]23CCCC[C@@H]13 (relative stereo) [Example 14, (+/-)-(4aα,10α,10aα) 1,3,4,9,10,10a Hexahydro-2H-4a,10-(iminomethano)phenanthrene]  0.086 µM
6. CN1C[C@@H]2Cc3ccccc3[C@]13CCCC[C@@H]23 (relative stereo) [Example 16, (+/-)-(4aα,10α,10aα) 1,3,4,9,10,10a-Hexahydro-12-methyl-2H 4a,10-(iminomethano)phenanthrene]  0.137 µM
